Measurements: ChEMBL document CHEMBL1201862, “PubChem BioAssay data set” (2004)
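The compound was tested at five concentrations on cells cultured in 96-well plates, with a 48-hour exposure period. Abbreviation: GI50, concentration required for 50% inhibition of growth.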 Activity calls are given as the source filed them. Cut-off read from the data, not from the text of the source: active = GI50 up to about 1.1 µM and inactive = higher.

Key:
Experiment in all cases: NCI anticancer screen, dose series, 48 h
OVCAR-4 = system: OVCAR-4
M14 = system: M14
KM12 = system: KM12
ACHN = system: ACHN
A549 = system: A549
OVCAR-3 = system: OVCAR-3
OVCAR-8 = system: OVCAR-8
SW-620 = system: SW-620
IGROV-1 = system: IGROV-1
RPMI-8226 = system: RPMI-8226
U-251 = system: U-251
SK-MEL-28 = system: SK-MEL-28
MCF7 = system: MCF7
UO-31 = system: UO-31
MDA-N = system: MDA-N
MOLT-4 = system: MOLT-4
UACC-62 = system: UACC-62
NCI-H226 = system: NCI-H226
NCI-H522 = system: NCI-H522
HCC 2998 = system: HCC 2998

Measured: GI50

C=C[C@@H]1OC(=O)O[C@H]1CO
inactive: OVCAR-4 > 100 µM | M14 > 100 µM | KM12 > 100 µM | ACHN > 100 µM | A549 > 100 µM | OVCAR-3 > 100 µM | OVCAR-8 > 100 µM | SW-620 > 100 µM | IGROV-1 > 100 µM | RPMI-8226 > 100 µM | U-251 > 100 µM | SK-MEL-28 > 100 µM | MCF7 > 100 µM | UO-31 > 100 µM | MDA-N > 100 µM | MOLT-4 > 100 µM | UACC-62 > 100 µM | NCI-H226 > 100 µM

COc1c(C(C)(C)C)cc(CC2C(=O)C=CC2=O)cc1C(C)(C)C
inactive: OVCAR-4 21.2 µM | M14 17.9 µM | KM12 17.4 µM | ACHN 8.47 µM | A549 24.3 µM | NCI-H522 2.25 µM | OVCAR-3 13.9 µM | OVCAR-8 9.68 µM | SW-620 6.92 µM | IGROV-1 14.2 µM | RPMI-8226 2.95 µM | U-251 18.2 µM | SK-MEL-28 16.6 µM | MCF7 16.7 µM | UO-31 8.61 µM | MDA-N 15.2 µM | MOLT-4 2.93 µM | UACC-62 17.9 µM

CCCCCCc1nn2c(-c3ccc(C)cc3)nnc2s1
inactive: OVCAR-4 > 100 µM | M14 > 100 µM | KM12 > 100 µM | ACHN > 100 µM | A549 > 100 µM | NCI-H522 67.3 µM | OVCAR-3 > 100 µM | OVCAR-8 68.9 µM | SW-620 > 100 µM | RPMI-8226 > 100 µM | U-251 32.6 µM | SK-MEL-28 > 100 µM | MCF7 > 100 µM | UO-31 > 100 µM | MDA-N > 100 µM | MOLT-4 46.2 µM | UACC-62 > 100 µM

NC1(P(=O)(O)O)CCCCC1
inactive: OVCAR-4 > 100 µM | M14 > 100 µM | KM12 > 100 µM | ACHN > 100 µM | A549 > 100 µM | NCI-H522 > 100 µM | OVCAR-3 > 100 µM | OVCAR-8 > 100 µM | SW-620 > 100 µM | IGROV-1 > 100 µM | RPMI-8226 > 100 µM | U-251 > 100 µM | SK-MEL-28 > 100 µM | MCF7 > 100 µM | MDA-N > 100 µM | MOLT-4 > 100 µM | UACC-62 > 100 µM | NCI-H226 > 100 µM

C1=CC2C(C3CN(c4ccccc4)N=C13)C1C3C4C=CC21C=CC43 (configuration not stated)
inactive: OVCAR-4 > 78.5 µM | M14 > 100 µM | KM12 > 100 µM | ACHN > 100 µM | A549 > 100 µM | NCI-H522 97.5 µM | OVCAR-3 > 100 µM | OVCAR-8 > 95.3 µM | SW-620 > 100 µM | IGROV-1 > 100 µM | RPMI-8226 > 100 µM | U-251 > 100 µM | HCC 2998 > 100 µM | SK-MEL-28 > 100 µM | MCF7 > 100 µM | UO-31 > 100 µM | MOLT-4 > 100 µM | UACC-62 > 100 µM | NCI-H226 > 100 µM

Cc1nc2[nH]ccn2c(=O)c1CCO
inactive: OVCAR-4 > 10 µM | M14 > 10 µM | KM12 > 10 µM | ACHN > 10 µM | A549 > 10 µM | OVCAR-3 > 10 µM | OVCAR-8 > 10 µM | SW-620 > 10 µM | IGROV-1 > 10 µM | RPMI-8226 > 10 µM | U-251 > 10 µM | SK-MEL-28 > 10 µM | MCF7 > 10 µM | UO-31 > 10 µM | MDA-N > 10 µM | MOLT-4 > 10 µM | UACC-62 > 10 µM | NCI-H226 > 10 µM

O=c1[nH]n(Cc2ccccc2Cl)c2ccccc12
inactive: OVCAR-4 > 100 µM | M14 > 100 µM | KM12 > 100 µM | ACHN > 100 µM | A549 > 100 µM | NCI-H522 > 100 µM | OVCAR-3 73.1 µM | OVCAR-8 > 100 µM | SW-620 > 100 µM | IGROV-1 > 100 µM | RPMI-8226 > 100 µM | U-251 > 100 µM | HCC 2998 > 100 µM | SK-MEL-28 > 100 µM | UO-31 > 100 µM | MDA-N > 100 µM | MOLT-4 > 100 µM | UACC-62 > 100 µM | NCI-H226 > 100 µM

CC(C)(C)OC(=O)N1C(c2cccnc2)=CC[C@H]2C3CC=C(c4cccnc4)[C@@]3(C)CC[C@@H]21 (some centres not stated)
inactive: OVCAR-4 5.09 µM | M14 4.75 µM | KM12 4.06 µM | ACHN 3.46 µM | A549 3.37 µM | NCI-H522 2.92 µM | OVCAR-3 3.44 µM | OVCAR-8 4.02 µM | SW-620 3.83 µM | IGROV-1 4.16 µM | RPMI-8226 1.82 µM | U-251 3.36 µM | MCF7 2.81 µM | UO-31 4.95 µM | MDA-N 3.05 µM | MOLT-4 2.54 µM | UACC-62 2.61 µM | NCI-H226 3.56 µM

CCC1=NC(N/N=C/c2ccco2)=N/C1=C\c1ccco1
inactive: OVCAR-4 > 100 µM | M14 > 100 µM | KM12 > 100 µM | ACHN > 100 µM | A549 > 100 µM | NCI-H522 > 100 µM | OVCAR-8 > 100 µM | SW-620 > 100 µM | IGROV-1 > 100 µM | RPMI-8226 40.9 µM | U-251 > 100 µM | HCC 2998 > 100 µM | SK-MEL-28 > 100 µM | UO-31 > 100 µM | MDA-N > 100 µM | MOLT-4 > 100 µM | UACC-62 > 100 µM | NCI-H226 > 100 µM

S=C(c1c[nH]c2ccccc12)N1CCN(Cc2ccccc2)CC1
inactive: M14 14 µM | KM12 17.2 µM | ACHN 25.5 µM | OVCAR-3 14.4 µM | OVCAR-8 19.1 µM | SW-620 17.8 µM | IGROV-1 12.7 µM | RPMI-8226 13 µM | U-251 19.5 µM | SK-MEL-28 17.3 µM | MCF7 22.2 µM | UO-31 6.61 µM | MDA-N 15.6 µM | MOLT-4 16.6 µM | UACC-62 15.6 µM | NCI-H226 15 µM

CSc1ncc2c(n1)-c1ccccc1OC2NC1CC1 (configuration not stated)
inactive: OVCAR-4 30.6 µM | M14 > 100 µM | KM12 73.5 µM | ACHN 49.5 µM | A549 > 100 µM | NCI-H522 24.8 µM | OVCAR-3 57.5 µM | OVCAR-8 71.4 µM | SW-620 > 100 µM | IGROV-1 49 µM | RPMI-8226 31.3 µM | U-251 76.2 µM | MCF7 58.3 µM | UO-31 33.2 µM | MDA-N > 100 µM | MOLT-4 37.2 µM | UACC-62 25.8 µM | NCI-H226 25.5 µM
